From ChEMBL document CHEMBL5053535, “Design, synthesis and biological evaluation of novel aminopyrazole- and 7-azaindole-based Nek1 inhibitors and their effects on zebrafish kidney development” (Bioorg Med Chem Lett, 2021)
Values after ≈ are worked out from the molar mass of the structure shown.

Experiments:
[1] = molecular target: T1, Serine/threonine-protein kinase Nek1 (Homo sapiens) (UniProt Q96PY6); test: Inhibition of human NEK1 using myelin basic protein as substrate assessed as residual activity at 1 uM in presence of [gamma-33P]-ATP by radiometric hotspot kinase assay relative to control
T1 sequence (whole entry): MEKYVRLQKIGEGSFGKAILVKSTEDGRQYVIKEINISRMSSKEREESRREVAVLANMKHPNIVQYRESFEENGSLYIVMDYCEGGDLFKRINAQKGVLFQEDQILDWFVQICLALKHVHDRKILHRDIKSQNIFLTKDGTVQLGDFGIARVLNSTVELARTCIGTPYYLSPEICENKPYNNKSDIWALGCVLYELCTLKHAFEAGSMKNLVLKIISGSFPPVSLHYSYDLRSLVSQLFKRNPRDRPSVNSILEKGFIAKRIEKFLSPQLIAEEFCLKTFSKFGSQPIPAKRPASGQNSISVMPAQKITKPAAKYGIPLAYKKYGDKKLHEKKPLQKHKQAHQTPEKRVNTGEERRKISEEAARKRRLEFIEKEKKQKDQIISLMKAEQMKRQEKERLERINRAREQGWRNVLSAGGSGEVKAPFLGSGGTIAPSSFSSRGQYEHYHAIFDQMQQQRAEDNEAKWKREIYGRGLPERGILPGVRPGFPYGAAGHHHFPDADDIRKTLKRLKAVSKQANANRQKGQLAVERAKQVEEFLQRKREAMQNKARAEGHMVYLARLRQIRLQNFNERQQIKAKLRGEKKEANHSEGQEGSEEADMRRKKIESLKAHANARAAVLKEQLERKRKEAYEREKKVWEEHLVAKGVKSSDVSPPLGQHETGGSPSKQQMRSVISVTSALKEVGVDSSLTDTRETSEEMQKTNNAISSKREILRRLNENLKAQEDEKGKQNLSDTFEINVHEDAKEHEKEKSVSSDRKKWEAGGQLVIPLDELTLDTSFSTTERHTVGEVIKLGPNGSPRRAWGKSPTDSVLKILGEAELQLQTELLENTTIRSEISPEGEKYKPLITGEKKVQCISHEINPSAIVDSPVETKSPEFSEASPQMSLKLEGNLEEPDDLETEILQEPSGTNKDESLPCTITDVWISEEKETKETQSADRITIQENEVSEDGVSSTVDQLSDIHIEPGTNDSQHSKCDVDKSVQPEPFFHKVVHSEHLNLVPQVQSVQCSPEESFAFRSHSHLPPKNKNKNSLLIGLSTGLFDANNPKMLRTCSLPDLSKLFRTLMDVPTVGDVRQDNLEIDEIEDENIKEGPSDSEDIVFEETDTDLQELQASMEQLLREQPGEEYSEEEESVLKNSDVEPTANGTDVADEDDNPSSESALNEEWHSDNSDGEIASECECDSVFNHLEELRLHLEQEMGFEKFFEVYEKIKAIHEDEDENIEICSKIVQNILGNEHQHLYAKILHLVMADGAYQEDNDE

[2] = molecular target: T1, Serine/threonine-protein kinase Nek1 (Homo sapiens); test: Inhibition of human NEK1 using myelin basic protein as substrate assessed as residual activity at 10 uM in presence of [gamma-33P]-ATP by radiometric hotspot kinase assay relative to control
[3] = Solubility of the compound in E3 medium with 0.2% DMSO by DAD-HPLC based shake flask method; assay type: physicochemical
[4] = Stability of the compound in DMEM measured after 48 hrs by DAD-HPLC method; assay type: physicochemical; details: read-out: Stability
Danio rerio = species: Danio rerio; test: Toxicity in zebra fish embryos assessed as reduction in heart beat at 1 uM measured every 24 hrs for 120 hrs; assay type: organism-based; details: zebrafish, in vivo
[5] = molecular target: Cyclin-dependent kinase 2/cyclin E1 (Homo sapiens) (UniProt P24864+P24941); test: (§1) Inhibition of human recombinant full length C-terminal His6 tagged CDK2/ N-terminal GST-tagged Cyclin E expressed in baculovirus infected Sf21 insect cells using histone H1 as substrate assessed as residual activity at 1 uM pretreated for 20 mins followed by [33P]-ATP addition measured after 120 mins by radiometric hotspot kinase assay relative to control; details: time 140.0 min
[6] = molecular target: Wee1-like protein kinase (Homo sapiens) (UniProt P30291); test: Inhibition of human recombinant full length WEE1 expressed in insect cells using MBP as substrate assessed as residual activity at 1 uM pretreated for 20 mins followed by [33P]-ATP addition measured after 120 mins by radiometric hotspot kinase assay relative to control; details: time 140.0 min
[7] = Solubility of the compound in DMEM with 1% DMSO by DAD-HPLC based shake flask method; assay type: physicochemical
[8] = molecular target: T2, Serine/threonine-protein kinase Nek1 (Homo sapiens, UniProt Q96PY6); test: Inhibition of human NEK1 using myelin basic protein as substrate assessed as residual activity in presence of [gamma-33P]-ATP by radiometric hotspot kinase assay relative to control
T2 sequence (Q96PY6 whole entry): T1 sequence (whole entry)

[9] = molecular target: T3, Serine/threonine-protein kinase Chk1 (Homo sapiens) (UniProt O14757); test: as §1, with “N-terminal His” for “C-terminal His6”, “CHK1” for “CDK2/ N-terminal GST-tagged Cyclin E”, “CHKtide” for “histone H1”; details: time 140.0 min
T3 sequence (whole entry): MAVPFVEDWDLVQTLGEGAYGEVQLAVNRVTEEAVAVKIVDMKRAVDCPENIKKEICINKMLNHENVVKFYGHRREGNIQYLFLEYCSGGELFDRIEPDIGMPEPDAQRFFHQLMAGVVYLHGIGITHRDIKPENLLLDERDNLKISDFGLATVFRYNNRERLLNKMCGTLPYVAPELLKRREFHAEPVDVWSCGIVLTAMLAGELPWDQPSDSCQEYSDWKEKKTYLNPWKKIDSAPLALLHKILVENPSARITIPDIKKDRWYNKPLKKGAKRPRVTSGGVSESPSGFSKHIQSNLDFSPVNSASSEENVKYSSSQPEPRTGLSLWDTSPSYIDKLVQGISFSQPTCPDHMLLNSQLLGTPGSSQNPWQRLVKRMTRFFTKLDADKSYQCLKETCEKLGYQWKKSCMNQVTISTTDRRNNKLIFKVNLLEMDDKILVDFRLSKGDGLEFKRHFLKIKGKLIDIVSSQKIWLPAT

[10] = molecular target: Vascular endothelial growth factor receptor 2 (Homo sapiens) (UniProt P35968); test: Inhibition of human recombinant C-terminal His6 tagged VEGFR2 (789 to 1356 residues) expressed in baculovirus infected insect cells assessed as residual activity at 1 uM pretreated for 20 mins followed by [33P]-ATP addition measured after 120 mins by radiometric hotspot kinase assay relative to control; details: time 140.0 min
[11] = molecular target: T4, Serine/threonine-protein kinase Nek5 (Homo sapiens) (UniProt Q6P3R8); test: Inhibition of human recombinant NEK5 assessed as residual activity at 1 uM pretreated for 20 mins followed by [33P]-ATP addition measured after 120 mins by radiometric hotspot kinase assay relative to control; details: time 140.0 min
T4 sequence (whole entry): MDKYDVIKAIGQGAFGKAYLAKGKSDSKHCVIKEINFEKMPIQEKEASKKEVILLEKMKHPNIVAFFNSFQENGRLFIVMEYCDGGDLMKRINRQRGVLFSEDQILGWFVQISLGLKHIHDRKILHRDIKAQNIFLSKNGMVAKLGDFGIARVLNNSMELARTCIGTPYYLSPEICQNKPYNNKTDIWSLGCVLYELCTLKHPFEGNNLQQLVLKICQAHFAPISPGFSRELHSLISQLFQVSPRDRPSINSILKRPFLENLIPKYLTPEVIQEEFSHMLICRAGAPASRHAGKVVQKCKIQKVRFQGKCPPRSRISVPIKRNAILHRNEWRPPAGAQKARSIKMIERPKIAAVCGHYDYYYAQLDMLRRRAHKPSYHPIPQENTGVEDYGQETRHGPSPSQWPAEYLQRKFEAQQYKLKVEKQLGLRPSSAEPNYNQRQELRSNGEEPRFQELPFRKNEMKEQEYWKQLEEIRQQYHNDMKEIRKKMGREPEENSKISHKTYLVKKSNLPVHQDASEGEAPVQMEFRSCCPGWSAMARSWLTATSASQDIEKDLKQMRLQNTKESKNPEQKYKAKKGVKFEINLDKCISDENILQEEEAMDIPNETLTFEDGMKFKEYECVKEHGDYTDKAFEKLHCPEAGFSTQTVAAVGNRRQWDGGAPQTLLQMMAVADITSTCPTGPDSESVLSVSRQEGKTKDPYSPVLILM

Sequence of Vascular endothelial growth factor receptor 2 (Homo sapiens) (P35968 whole entry, the tested form may be a part): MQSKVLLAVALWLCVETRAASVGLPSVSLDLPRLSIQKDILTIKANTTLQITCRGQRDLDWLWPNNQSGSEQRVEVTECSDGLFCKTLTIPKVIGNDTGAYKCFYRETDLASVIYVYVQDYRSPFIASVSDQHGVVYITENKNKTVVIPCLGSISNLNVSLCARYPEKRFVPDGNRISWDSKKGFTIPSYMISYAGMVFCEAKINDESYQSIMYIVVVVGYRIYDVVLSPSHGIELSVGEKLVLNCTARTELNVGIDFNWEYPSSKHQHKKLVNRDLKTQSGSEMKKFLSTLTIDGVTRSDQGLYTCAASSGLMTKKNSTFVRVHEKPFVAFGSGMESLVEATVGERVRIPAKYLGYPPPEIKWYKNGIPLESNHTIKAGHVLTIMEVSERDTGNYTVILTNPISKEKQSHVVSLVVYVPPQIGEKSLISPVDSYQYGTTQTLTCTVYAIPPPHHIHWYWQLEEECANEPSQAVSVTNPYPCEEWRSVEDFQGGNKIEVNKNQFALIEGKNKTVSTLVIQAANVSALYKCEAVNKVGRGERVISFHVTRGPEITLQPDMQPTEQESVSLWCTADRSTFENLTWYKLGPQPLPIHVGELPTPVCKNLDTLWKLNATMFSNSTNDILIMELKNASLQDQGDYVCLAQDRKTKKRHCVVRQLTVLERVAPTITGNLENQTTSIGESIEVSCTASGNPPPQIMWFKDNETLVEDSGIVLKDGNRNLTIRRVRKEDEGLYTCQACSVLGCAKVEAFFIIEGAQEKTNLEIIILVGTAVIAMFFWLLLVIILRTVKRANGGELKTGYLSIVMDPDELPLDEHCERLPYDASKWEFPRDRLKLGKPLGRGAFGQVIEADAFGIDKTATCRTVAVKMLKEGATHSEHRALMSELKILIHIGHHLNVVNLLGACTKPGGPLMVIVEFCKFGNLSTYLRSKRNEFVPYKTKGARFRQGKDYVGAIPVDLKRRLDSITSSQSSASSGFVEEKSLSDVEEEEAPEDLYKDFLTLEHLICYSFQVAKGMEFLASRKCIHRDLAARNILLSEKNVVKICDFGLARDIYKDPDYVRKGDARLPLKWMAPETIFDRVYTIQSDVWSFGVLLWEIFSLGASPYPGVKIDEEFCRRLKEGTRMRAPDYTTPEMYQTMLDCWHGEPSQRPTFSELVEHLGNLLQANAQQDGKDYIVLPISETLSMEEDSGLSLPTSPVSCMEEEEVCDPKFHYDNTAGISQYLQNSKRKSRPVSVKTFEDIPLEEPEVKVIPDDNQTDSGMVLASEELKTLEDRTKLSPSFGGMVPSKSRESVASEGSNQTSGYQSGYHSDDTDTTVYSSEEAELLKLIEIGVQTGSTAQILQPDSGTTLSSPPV
Sequence of Wee1-like protein kinase (Homo sapiens) (P30291 whole entry, looked up): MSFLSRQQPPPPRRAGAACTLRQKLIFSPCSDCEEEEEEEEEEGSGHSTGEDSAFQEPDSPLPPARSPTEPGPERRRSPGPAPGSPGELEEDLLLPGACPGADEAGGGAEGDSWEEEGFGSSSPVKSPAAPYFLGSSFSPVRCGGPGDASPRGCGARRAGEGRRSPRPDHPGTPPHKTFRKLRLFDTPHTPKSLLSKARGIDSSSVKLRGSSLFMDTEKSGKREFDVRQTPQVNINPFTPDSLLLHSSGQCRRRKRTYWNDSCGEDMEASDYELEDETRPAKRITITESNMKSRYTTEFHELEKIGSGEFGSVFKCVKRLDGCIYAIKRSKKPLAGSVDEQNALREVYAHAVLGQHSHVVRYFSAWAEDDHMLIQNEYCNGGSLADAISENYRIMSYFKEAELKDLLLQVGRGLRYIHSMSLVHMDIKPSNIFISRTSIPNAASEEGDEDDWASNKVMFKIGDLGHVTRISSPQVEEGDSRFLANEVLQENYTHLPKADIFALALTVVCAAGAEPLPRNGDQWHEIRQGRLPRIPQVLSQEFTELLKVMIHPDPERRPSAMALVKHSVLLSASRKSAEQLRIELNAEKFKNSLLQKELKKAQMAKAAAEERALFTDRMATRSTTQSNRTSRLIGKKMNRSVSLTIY

Cc1cc(Nc2ccnc(NCc3cccnc3)n2)n[nH]1
Activity [1]: 101%

Cc1cc(Nc2ccnc(Nc3ccccc3C)n2)n[nH]1
Activity [1]: 87.5%

c1ccc(-c2cnc3[nH]cc(-c4ccccc4)c3c2)cc1
Activity [1]: 29.3%

N#Cc1cccc(-c2cnc3[nH]ccc3c2)c1
Activity [2]: 64.7%

Cc1cc(Nc2ccnc(NCc3ccccc3)n2)n[nH]1
Activity [1]: 95.4%

COc1cccc(-c2c[nH]c3ncc(-c4cccc(C#N)c4)cc23)c1
Activity [1]: 41.1%

CNC(=O)c1cccc(-c2cnc3[nH]ccc3c2)c1
Activity [2]: 67.2%

Cc1cc(Nc2ccnc(Nc3cccc([N+](=O)[O-])c3)n2)n[nH]1
Activity [1]: 36.6%

c1ccc(-c2cnc3[nH]ccc3c2)cc1
Activity [2]: 62.9%

Cc1ccc(-c2c[nH]c3ncc(-c4cccc(C#N)c4)cc23)cc1
Activity [1]: 72.8%

COC(=O)c1cccc(-c2cnc3[nH]cc(-c4cccc(OC)c4)c3c2)c1
solubility [3]: 1 µM (≈ 0.358 µg/mL) | remaining at 48 h [4]: 97% | Activity (Danio rerio): Non-Toxic | Activity [1]: 12.4% | Activity [5]: 19.3% | Activity [6]: > 100% | solubility [7]: 2 µM (≈ 0.717 µg/mL) | IC50 [8]: 166 nM | Activity [9]: > 100% | Activity [10]: 94.1% | Activity [11]: 90%

Cc1cc(Nc2ccnc(NCc3ccc4c(c3)OCO4)n2)n[nH]1
Activity [1]: 97.2%

COC(=O)c1cccc(-c2cnc3[nH]cc(-c4cccc(C)c4)c3c2)c1
Activity [1]: 46.4%

O=[N+]([O-])c1cccc(-c2cnc3[nH]ccc3c2)c1
Activity [2]: 78.5%

N#Cc1cccc(-c2cnc3[nH]cc(Br)c3c2)c1
Activity [1]: > 100%

CCCCNc1nccc(Nc2cc(C)[nH]n2)n1
Activity [1]: 86.9%

COC(=O)c1cccc(-c2cnc3[nH]cc(-c4ccccc4)c3c2)c1
solubility [3]: 2.5 µM (≈ 0.821 µg/mL) | remaining at 48 h [4]: 86% | Activity [1]: 7.31% | Activity [5]: 23.5% | Activity [6]: 82.9% | solubility [7]: 4.4 µM (≈ 1.44 µg/mL) | IC50 [8]: 123 nM | Activity [9]: > 100% | Activity [10]: 97.2% | Activity [11]: 78.7%

Cc1cc(Nc2ccnc(NCc3ccccn3)n2)n[nH]1
Activity [1]: 90.8%

COC(=O)c1cccc(-c2cnc3[nH]cc(-c4ccc(C)cc4)c3c2)c1
Activity [1]: 47.9%

COC(=O)c1cccc(-c2cnc3[nH]ccc3c2)c1
Activity [2]: 44.7%

N#Cc1cccc(-c2cnc3[nH]cc([N+](=O)[O-])c3c2)c1
Activity [1]: > 100%
